What was measured:
[1] = test system: wild-type M1 mAChR; test: Agonist bias analysis, IP1 versus ERK1/2 phosphorylation (operational model); format: cell-based, human; settings: reference ligand ACh
Description: (§1) For the analysis, all families of agonist curves at each pathway were globally fitted to the model with the parameters, basal, Em, and n shared between all agonists. For full agonists, the LogKA was constrained to a value of zero, whereas for partial agonists this was directly estimated by the curve fitting procedure; the Log(τ/KA) parameter was estimated as a unique measure of activity for each agonist.

[2] = target: T1, human M1 mAChR (Homo sapiens, UniProt P11229); test: IP1 accumulation after receptor alkylation with phenoxybenzamine (functional interaction with ACh); settings: phenoxybenzamine 3 μM for 30 minutes, CHO Flp-In cells
T1 sequence (P11229 1-460): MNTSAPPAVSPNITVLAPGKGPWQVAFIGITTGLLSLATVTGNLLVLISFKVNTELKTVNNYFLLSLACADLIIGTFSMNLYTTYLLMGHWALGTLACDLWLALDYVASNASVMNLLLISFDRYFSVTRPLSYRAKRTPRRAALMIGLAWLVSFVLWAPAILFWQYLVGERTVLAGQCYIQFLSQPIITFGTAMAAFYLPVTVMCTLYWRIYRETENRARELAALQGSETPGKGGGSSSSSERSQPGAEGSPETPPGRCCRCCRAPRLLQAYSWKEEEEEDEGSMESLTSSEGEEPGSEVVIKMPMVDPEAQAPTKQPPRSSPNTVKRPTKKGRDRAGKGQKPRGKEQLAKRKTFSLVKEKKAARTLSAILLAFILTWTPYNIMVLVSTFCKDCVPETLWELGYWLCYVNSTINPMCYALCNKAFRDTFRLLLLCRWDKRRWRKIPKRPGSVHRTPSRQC

[3] = target: T2, human M1 receptor (Homo sapiens, UniProt P11229); test: ERK1/2 phosphorylation, CHO Flp-In human M1 cells; format: cell-based
T2 construct: expressed in transfected cells; host or cells: CHO Flp-In
T2 sequence (P11229 1-460): T1 sequence (P11229 1-460)
Experimental: CHO Flp-In cells stably expressing the human M1 receptor were seeded onto transparent 96-well plates at 20,000 cells/well and grown to confluence. Cells were serum starved overnight prior to the experiment. Prior to the stimulations, cells were washed with 100 μl phosphate-buffered saline and then incubated in serum free F12 medium at 37°C. Cells were stimulated with ligands for 5 minutes at 37°C in a final volume of 200 μl. The stimulations were terminated by rapid aspiration and addition of 50 μl lysis buffer supplemented with blocking reagent per the manufacturer’s instructions, followed by gentle agitation at room temperature for 30 minutes. Subsequently, 16 μl of this lysate was transferred to a 384-well white ProxiPlate (PerkinElmer) and incubated with 4 μl premixed antibody solution for 2 hours at room temperature.
as §1

[4] = test system: C57Bl/6J mice; test: Contextual fear conditioning, scopolamine-induced deficit; format: in vivo, mouse; settings: for shape of the dose response on learning and memory: escalating i.p. doses with scopolamine […]
Experimental: C57Bl/6J male mice (aged 8–12 weeks) were acclimatized to the behavioral testing suite at least 2 hours prior to the test. […] Mice were placed in the conditioning chamber (ANY-maze Fear Conditioning System; Stoelting, Dublin, Ireland); after a 2-minute adaptation period, they received three tone/foot shock pairings where the foot shock (unconditioned stimulus; 2 seconds; 0.4 mA) always co-terminated with a tone (conditioned stimulus; 2.8 kH; 85 dB; 30 seconds). The conditioned stimulus–unconditioned stimulus pairings were separated by 1-minute intervals. After the mice completed training, they remained in the conditioning chamber for 1 minute and were then returned to their home cages. The next day, the mice were placed back in the conditioning chamber, and time spent immobile was recorded for 3 minutes to assess context-dependent learning. Data were analyzed using ANY-maze software (Stoelting).

[5] = Mouse pharmacokinetics, unbound plasma and brain concentrations; format: in vivo; settings: mice, 30 minutes after i.p. administration
Experimental: Pharmacokinetic analyses were conducted as previously described ([Witkin et al., 2017]). Compounds were administered via intraperitoneal injection (in 5% glucose) 30 minutes prior to blood collection. Mice were anesthetized with 3% isoflurane (2 l/min), and blood was collected by cardiac puncture of the left ventricle. Blood was immediately transferred to EDTA tubes and centrifuged at 1000g for 10 minutes at 4°C; the supernatant was collected and frozen. Brains from each mouse were also dissected and snap-frozen on dry ice.
Brain samples were homogenized in three volumes of methanol/water [1:4 (v/v)] by weight. A 25-μl aliquot of each study sample, calibration standard, and control sample was added to a 96-well plate and mixed with 180 μl acetonitrile/methanol [1:1 (v/v)] containing internal standard. The samples were subsequently centrifuged, and the resulting supernatants were diluted 12.5-fold with methanol/water [1:1 (v/v)] prior to analyzing 10-μl aliquots by liquid chromatography–tandem mass spectrometry as previously described ([Bradley et al., 2017]).

[6] = target: T1, human M1 mAChR; settings: 20 nM [^3H]-GSK1034702
[7] = target: T1, human M1 mAChR; test: Kinetic [3H]-NMS binding (dissociation) in membranes; parameters: expressed in transfected cells; host or cells: CHO Flp-In; settings: compound 10 μM plus atropine 10 μM
Experimental: Reactions were terminated by rapid filtration onto GF/B filter paper (Whatman, Maidstone, UK) and three washes with 3 ml ice-cold 0.9% NaCl using a Brandel harvester (M-24TI; Brandel, Fort Lauderdale, FL). Membrane bound radioactivity was determined by liquid scintillation (Ultima Gold; PerkinElmer) counting.

[8] = target: T1, human M1 mAChR; test: IP-One (IP1) accumulation assay, CHO Flp-In human M1 cells; format: cell-based; parameters: expressed in transfected cells; host or cells: CHO Flp-In
Experimental: Stimulation of IP accumulation was determined using the Cisbio IP-One Gq assay kit per the manufacturer’s instructions. […] CHO Flp-In cells stably expressing the human M1 mAChR were grown to confluence in T75 cell culture flasks at 37°C. Cells were washed with warm phosphate-buffered saline and detached using phosphate-buffered saline with 0.1 M EDTA. Detached cells were centrifuged at 1000g and the cells were resuspended in stimulation buffer.
All IP-One stimulations were terminated by the addition of 3 μl/well IP1-d2 solution, followed by 3 μl/well anti–IP1-cryptate solution and incubation for 1 hour at room temperature with shaking.
Functional concentration-response curves were fitted according to a four-parameter logistic equation (to determine minimum and maximum asymptotes, LogEC50, and slope; GraphPad Prism 6). […] In the absence of antagonist ([B] = 0), this equation becomes the standard four-parameter logistic equation for fitting agonist concentration-response data.

[9] = test system: patients with AD; parameters: method as in Bodick et al., 1997; settings: ref Bodick et al., 1997; cited from earlier work
[10] = test system: murine prion disease; settings: doses that rescued learning and memory, ref Bradley et al., 2017; cited from earlier work
[11] = normalized to reference ligand ACh
[12] = transduction coefficient, wild-type M1 mAChR

CC(=O)OCC[N+](C)(C)C [ACh, acetylcholine]
Log Bias Factor IP1 – ERK1/2 ΔΔLog10(τ/KA) [1]: 0.0 ± 0.1

CC(COc1ccccc1)N(CCCl)Cc1ccccc1 (stereo not drawn) [Phenoxybenzamine, phenoxybenzamine, reference compound]
reduction of the functional human M1 mAChR population [2]: approximately 80%

Cc1ccccc1CN1CCC(N2CCC(n3c(=O)[nH]c4ccccc43)CC2)CC1 [TBPB, 1-[1′-(2-methylbenzyl)-1,4′-bipiperidin-4-yl]-1,3-dihydro-2H-benzimidazol-2-one, reference compound]
ERK1/2 Phosphorylation ΔLog10(τ/KA) [3, 11]: −0.3 ± 0.4
ERK1/2 Phosphorylation Log10(τ/KA) [3, 12]: 6.9 ± 0.4
Log Bias Factor IP1 – ERK1/2 ΔΔLog10(τ/KA) [1]: 1.4 ± 0.2
shape of the dose response on learning and memory [4]: no evidence of a bell-shaped dose response
free brain concentration versus dose [5]: could not be increased beyond that observed at 10 mg/kg
displacement of specific [^3H]-GSK1034702 binding [6]: fully displaced
effect on the [^3H]-NMS dissociation rate [7]: no effect
IP1 Emax ([8]; CHO Flp-In human M1 cells): 55.2 ± 3.1
IP1 Accumulation ΔLog10(τ/KA) [8, 11]: 1.1 ± 0.2
IP1 Accumulation Log10(τ/KA) [8, 12]: 8.2 ± 0.2

CCCCCCOc1nsnc1C1=CCCN(C)C1 [Xanomeline, xanomeline]
effect on cognitive function [9]: significantly improved cognitive function
adverse responses [10]: gave adverse responses consistent with the activation of other muscarinic receptor subtypes
Log Bias Factor IP1 – ERK1/2 ΔΔLog10(τ/KA) [1]: 1.1 ± 0.1
shape of the dose response on learning and memory [4]: bell shaped
free brain concentration versus dose [5]: increase linearly with escalating doses

CN1[C@@H]2C[C@@H](OC(=O)[C@H](CO)c3ccccc3)C[C@H]1[C@@H]1O[C@@H]12 [scopolamine]
effect on contextual fear conditioning learning and memory ([4]; doses above 1 mg/kg, 30 minutes prior to training): significant reduction in contextual fear conditioning learning and memory

Source: paper PMC5963591, “Bitopic Binding Mode of an M1 Muscarinic Acetylcholine Receptor Agonist Associated with Adverse Clinical Trial Outcomes” (Molecular Pharmacology, 2018)
